Results published in ChEMBL document CHEMBL3608240, “Tetrahydropyrrolo-diazepenones as inhibitors of ERK2 kinase” (Bioorg Med Chem Lett, 2015).

Key:
[1] = Clearance in rat at 1 mg/kg, iv relative to hepatic blood flow; format: ADME, organism-based, Liver; conditions: in vivo
[2] = Oral bioavailability in rat at 250 mg/kg; format: ADME, organism-based; conditions: in vivo

O=C1c2cc(-c3ccnc(NC4CCOCC4)n3)cn2CCCN1[C@H](CO)c1ccccc1
clearance [1]: 79 mL/min/kg | bioavailability [2]: < 10%
